Assay results as given in a melting point compilation (Tetko et al.; mined from patent text by program, amines drawn as free bases though some values may be those of a salt).

SMILES	melting point [°C]
Nc1nc(NCC(O)CO)c2ncn(C3C=CC(CO)C3)c2n1 (stereo not given)	119 to 121
CCN(c1ccc(OC)cc1)c1cc(NC)nc(C)n1	116 to 118
COc1cc(CCCC2OC(=O)NC2=O)ccc1OCc1coc(CCc2ccccc2)n1 (stereo not given)	122 to 123
Cn1c2cccc(Br)c2c2nc3ccccc3nc21	208 to 209
CN(C)CCCOc1ccc2ccc(NC(=O)c3c(F)cccc3F)nc2n1	190
O=C(O)c1ccccc1Oc1ccc2c(c1)CC[C@H](CNC[C@H](O)COc1ccccc1)O2	188
CCCCCCCCCCCC1OC1CO (stereo not given)	68 to 70
O=C(Nc1ccc2c(c1)C(F)(F)C(F)(F)O2)N1CC(c2ccccc2)=C(c2ccc(OC(F)F)cc2)N1	155 to 159
C=Cn1ccnc1C(O)(c1ccccc1)c1ccccc1C(C)(C)C (stereo not given)	152 to 153
COc1ccc2c(=O)ccn(CCN3CCC(NC(=O)OC(C)(C)C)CC3)c2c1	207
CCc1nc2c(N)nc3cccnc3c2n1CC1(O)CCNCC1	232 to 233
FC(F)(F)c1ccc(CC(=Nc2ccccc2)NC(=S)NCc2cccnc2)cc1	165 to 166
CN(Cc1cc(C(F)(F)F)cc(C(F)(F)F)c1)C(=O)c1nc(NCc2ccccc2)ncc1-c1ccccc1	128 to 130
CCC1(C)CC(N(CCN(C(C)=O)C2CC(C)(CC)NC(C)(CC)C2C)C(C)=O)C(C)C(C)(CC)N1 (stereo not given)	173 to 175
FCc1ccc(-c2cn([C@H]3CN4CCC3CC4)nn2)cc1	138
O=[N+]([O-])C(F)(CCc1nnc(C(F)(F)C(F)(F)C(F)(F)F)o1)[N+](=O)[O-]	21 to 22
Ic1ccc(-c2nc3ccccc3n2-c2ccccc2)cc1	178 to 181
CCC(O)c1cc2c(=O)n(NS(C)(=O)=O)c(=O)[nH]c2cc1C(F)(F)F (stereo not given)	219 to 222
CC(=O)CCN1CCC(Nc2nc3ccccc3n2Cc2ccc(F)cc2)CC1	131
Fc1ccccc1[C@@H]1Cc2cnc(Nc3cccc(CCN4CCNCC4)c3)nc2-c2ccccc21	165 to 167
Clc1ncnc(Cl)c1Cl	50 to 52

SMILES	melting point [°C]
CSc1nc(=O)cc(N)n1-c1ccc(C)cc1	130 to 132
CCOc1ccc(C(O)CN2CCOCC2)cc1-c1nc2c(C)cccc2c(=O)[nH]1 (stereo not given)	145 to 147
O=C(NCCO)c1ccc(CCN2CCN(Cc3ccccc3Cl)CC2)cc1	121 to 122
NC(=O)c1cnn2c1NCC=C2c1ccccc1	149 to 152
COc1ccc(-c2c(Cl)c(CN3C(=O)CCC3=O)nc3sc4c(c23)CCC(=O)C4(C)C)cc1	245 to 246
O=c1cnc2c([nH]1)-c1ccccc1C2=NO	> 300
Oc1ccc(-c2cnc(NC(=S)Cc3ccccc3)c(Cc3ccccc3)n2)cc1	195 to 198
Cc1ccc(S(=O)(=O)OC[C@H]2CCC[C@H](OCc3c(Cl)cccc3Cl)O2)cc1 (relative stereo)	123 to 124
Cc1cc(N2C(=O)c3ccccc3C2=O)c(C)cc1N=CN(C)C	170 to 173
CCCCCCCCCCCCCCOc1cccc(CC(=O)Nc2cccc(CO)c2)c1	86 to 90
OCC(Oc1ccc(-c2ccccc2)cc1)c1ccccc1 (stereo not given)	126 to 127
O=C(NCc1ccc(Cl)cc1)c1cnc2sc(C#CCO)cc2c1O	233 to 236
Cc1cc(-c2ccc(Cl)cc2)nc2c(C#Cc3ccc(C(C)(C)O)cc3)cnn12	112 to 115
Cc1nc(-n2ccc(NC(=O)c3ccccc3)cc2=O)sc1C(=O)NCc1ccccc1	246 to 248
C=CCN1C(=O)C=C(NC2c3cc4c(cc3C(c3cc(OC)c(O)c(OC)c3)C3C(=O)OCC23)OCO4)C1=O (stereo not given)	180 to 183
COc1cc2c(c3c1C1CCC3CC1)OC(COS(=O)(=O)c1ccc(C)cc1)C2 (stereo not given)	136 to 141
CSc1ccc2ccc(N3C(=O)c4ccccc4C3O)nc2n1 (stereo not given)	210
CC1(C)Cc2c(c(O)cc3c2C(c2cccc(-c4ccc(NC(=O)OCc5ccccc5)cc4)c2)=NCC3(C)C)O1	161 to 165
CNc1nc2ccn(Cc3ccc(F)cc3)cc-2n1	210
CCCCCCc1ccc(C#Cc2ccc(C=O)cc2)cc1	67
Nc1cccc(Oc2ccc(C(=O)c3ccc(C(=O)c4ccc(Oc5cccc(N)c5)cc4)cc3)cc2)c1	161 to 163

More lines, now with the values ahead:

melting point [°C]	SMILES
192 to 195	Cc1nc(Oc2ccc(Cl)cc2)c2ccccc2c1CC(=O)O
143 to 144	CCOC(=O)c1c(N2CCCCC2)c(C#N)c(=O)n2ccccc12
76 to 77	CCOc1ccc2[nH]c(C)cc2c1
99 to 100	C=CC(=O)Oc1ccc(NS(=O)(=O)CC)cc1
116 to 118	O=[N+]([O-])c1ccc(Cl)c2c(Cl)ccnc12
110 to 111	CC(=O)c1ccc(OCCCC(=O)O)cc1F
183 to 184	COc1cccc(/C=C/C(=O)Nc2ccccc2C(=O)O)c1
108 to 109	O=C(NCCO)c1cccc(-c2ccc3c(c2)N(c2cc(Cl)cc(Cl)c2)CC3)c1
100 to 101	COc1cc(OC)c(-c2cccs2)cc1/C=C/C(=O)c1ccc(S(=O)(=O)NCC(=O)O)cc1
164 to 166	O=C(Sc1ccccc1)c1cc2cc(CCl)ccc2oc1=O
152 to 153	CCCCOc1c(CNC(=O)OC(C)(C)C)n(CC(C)C)c(=O)c2ccc(-c3nnn[nH]3)cc12
149 to 150	CC(c1cn(C)c2ccccc12)N(O)C(N)=O (stereo not given)
87 to 89	CCCc1c(OCCCCCC(=O)NCCCCc2cncnc2)ccc(C(C)=O)c1O
95 to 98	COc1ccc(C)cc1NC(=O)Nc1ccc2c(c1)CCN(C(=O)Oc1ccc(CCO)cc1Cl)C2
56	CCOC(=O)C=Cc1ccc(Cl)c(Cl)c1
165	CCS(=O)c1ccccc1S(=O)(=O)NC(=O)Nc1nc(OC)nc(OC)n1 (stereo not given)
249 to 250	CCOP(=O)(/C=C/c1ccc2cc(NC(=O)C(NC(=O)OC(C)(C)C)C(C)(C)C)cc(-c3cccc4ccccc34)c2n1)OCC (stereo not given)
165 to 167	CCOP(=O)(OCC)C(Nc1nc2ccccc2s1)P(=O)(OCC)OCC
251 to 253	O=C(O)c1cc(=O)c2c(o1)-c1ccccc1SC2
190	CC#CCOc1ccc(S(=O)(=O)C(C(=O)NO)c2ccc(OC)cc2)cc1 (stereo not given)
73 to 75	COc1ccc2c(O)cccc2c1
134 to 136	CCCC#Cc1ccnc2c1c(C(C)=O)cn2S(=O)(=O)c1ccccc1
154 to 155	CCOC(=O)C=C1CN(C)C(=O)c2ccccc2N1
109 to 111	CC(C)c1cc(C(C)(C)C)cc(-c2ccc(F)cc2)c1O
150 to 152	COC(=O)NC12CC=CCC1CSc1ccccc12 (stereo not given)
232 to 235	CCOC(=O)Nc1cccc(-c2ccc3nnc(C)n3n2)c1
196 to 198	CC(C)(CS(C)(=O)=O)NC(=O)c1c(I)cccc1C(=O)Nc1ccc(S(F)(F)(F)(F)F)cc1Cl
95 to 96	CC(=O)C(=Cc1cccc([N+](=O)[O-])c1)C(=O)OC(C)CCl (stereo not given)
